According to the supplement of paper PMC8671470:

Tests used:
Conditions in all cases: 72 h
[1] = test system: myeloid leukemia patient primary cells Pat.6; assay: cell viability (% survival relative to DMSO control); higher = less cytotoxic
Summary of the method: (§1)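 Mononuclear cells from patients with AML or CML were thawed, purified on Ficoll and placed in RPMI 1640 with 10% FBS at 10,000 cells/well on 384-well plates. The plates came pre-printed with 70 compounds at five tenfold concentrations spanning 1–10,000 nM, in duplicate, and cells were exposed for 72 h. CellTiter-Glo gave viability, scaled between DMSO wells and wells with 10 μM proteasome inhibitor. Where reported, area under the curve was obtained from log-logistic fits with four parameters using the drc and PharmacoGx R packages.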

[2] = test system: myeloid leukemia patient primary cells Pat.1; assay: as above
Summary of the method: as §1

[3] = test system: myeloid leukemia patient primary cells Pat.2; assay: as above
Summary of the method: as §1

[4] = test system: myeloid leukemia patient primary cells Pat.8; assay: as above
Summary of the method: as §1

[5] = test system: myeloid leukemia patient primary cells Pat.13; assay: as above
Summary of the method: as §1

[6] = test system: myeloid leukemia patient primary cells Pat.4; assay: as above
Summary of the method: as §1

[7] = test system: myeloid leukemia patient primary cells Pat.15; assay: as above
Summary of the method: as §1

[8] = test system: myeloid leukemia patient primary cells Pat.14; assay: as above
Summary of the method: as §1

[9] = test system: myeloid leukemia patient primary cells Pat.5; assay: as above
Summary of the method: as §1

[10] = test system: myeloid leukemia patient primary cells Pat.10; assay: as above
Summary of the method: as §1

[11] = test system: myeloid leukemia patient primary cells Pat.9; assay: as above
Summary of the method: as §1

[12] = test system: myeloid leukemia patient primary cells Pat.12; assay: as above
Summary of the method: as §1

[13] = test system: myeloid leukemia patient primary cells Pat.11; assay: as above
Summary of the method: as §1

[14] = test system: myeloid leukemia patient primary cells Pat.3; assay: as above
Summary of the method: as §1

[15] = test system: myeloid leukemia patient primary cells Pat.7; assay: as above
Summary of the method: as §1

THP-1 = test system: THP-1
Summary of the method: (§2)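 In 384-well plates holding acoustically pre-printed compounds at five tenfold doses from 1 to 10,000 nM, in duplicate, fifteen myeloid leukaemia cell lines were grown in RPMI 1640 for 72 h at 37 °C with 5% CO2. Luminescent ATP viability was scaled between vehicle and a positive control at 10 µM. The IC50 was then taken from log-logistic dose–response fits with four parameters.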

K-562 = test system: K-562
Summary of the method: as §2

HEL = test system: HEL
Summary of the method: as §2

SHI-1 = test system: SHI-1
Summary of the method: as §2

LAMA-84 = test system: LAMA-84
Summary of the method: as §2

KU-812 = test system: KU-812
Summary of the method: as §2

BV-173 = test system: BV-173
Summary of the method: as §2

MV4-11 = test system: MV4-11
Summary of the method: as §2

Mono-Mac-6 = test system: Mono-Mac-6
Summary of the method: as §2

MOLM-13 = test system: MOLM-13
Summary of the method: as §2

HL-60 = assay: area under dose-response curve (viability, 1 nM-10 uM) (fraction (0-1)); higher = more sensitive
Summary of the method: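 Four-parameter log-logistic fits in drc and PharmacoGx supplied area under the curve where it is given. Underlying viability came from CellTiter-Glo, normalised to DMSO and proteasome-inhibitor wells, with the proteasome inhibitor at 10 μM. HL-60 cells in RPMI 1640 plus 10% FBS had been rescreened against the full library at five tenfold concentrations of 1–10,000 nM, in duplicate on 384-well plates, with DMSO or 100 nM of one of three metabolic inhibitors, for 72 h at 37 °C, 5% CO2.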

CN(CCOc1ccc(Cc2sc(O)nc2O)cc1)c1ccccn1 [Rosiglitazone]
Conditions	area under dose-response curve, co-treatment: AZD3965 100 nM	area under dose-response curve, co-treatment: DMSO vehicle	area under dose-response curve, co-treatment: GSK2194069 100 nM	area under dose-response curve, co-treatment: pictilisib 100 nM	cell viability, 1 nM [%]	cell viability, 10 nM [%]	cell viability, 100 nM [%]	cell viability, 1000 nM [%]	cell viability, 10000 nM [%]
HL-60	< 0.0301	< 0.0301	< 0.0301	< 0.0301	–	–	–	–	–
[1]	–	–	–	–	89.5	85.4	96.7	99	77.9
[2]	–	–	–	–	80.1	72.6	92.5	95.9	84.4
[3]	–	–	–	–	87.1	78.9	97.8	98.3	83.4
[4]	–	–	–	–	92.6	87	80.3	91.8	69.7
[5]	–	–	–	–	80.8	69.2	99.9	91.9	78.3
[6]	–	–	–	–	83.3	93	99.6	94.1	95.3
[7]	–	–	–	–	93.1	95	91.5	77.7	70
[8]	–	–	–	–	53.7	59.7	> 100	91.1	50
[9]	–	–	–	–	9.01	3.3	91.7	92.8	6.86
[10]	–	–	–	–	73.8	40	87.7	67.1	49.2
[11]	–	–	–	–	55	24.9	94.9	61.9	29.7
[12]	–	–	–	–	> 100	97.4	95.7	96.5	88.9
[13]	–	–	–	–	98.6	92.1	95.7	97.2	88.1
[14]	–	–	–	–	91.7	63.6	99.4	79.2	36
[15]	–	–	–	–	62.7	60	> 100	88.5	66

Conditions	IC50 (cell viability) [nM]
BV-173	> 10000
HEL	> 10000
K-562	> 10000
KU-812	> 10000
LAMA-84	> 10000
MOLM-13	> 10000
MV4-11	> 10000
Mono-Mac-6	85.2
SHI-1	> 10000
THP-1	> 10000

CO[C@H]1C[C@@H]2CC[C@@H](C)[C@@](O)(O2)C(=O)C(=O)N2CCCC[C@H]2C(=O)O[C@H]([C@H](C)C[C@@H]2CC[C@@H](OC(=O)C(C)(CO)CO)[C@H](OC)C2)CC(=O)[C@H](C)/C=C(\C)[C@@H](O)[C@@H](OC)C(=O)[C@H](C)C[C@H](C)/C=C/C=C/C=C/1C [Temsirolimus]
Conditions	area under dose-response curve, co-treatment: AZD3965 100 nM	area under dose-response curve, co-treatment: DMSO vehicle	area under dose-response curve, co-treatment: GSK2194069 100 nM	area under dose-response curve, co-treatment: pictilisib 100 nM	cell viability, 1 nM [%]	cell viability, 10 nM [%]	cell viability, 100 nM [%]	cell viability, 1000 nM [%]	cell viability, 10000 nM [%]
HL-60	< 0.0301	< 0.0301	< 0.0301	< 0.0301	–	–	–	–	–
[1]	–	–	–	–	99.3	88.2	77.1	96.8	55.5
[2]	–	–	–	–	89.3	47.4	52.9	70.1	51.8
[3]	–	–	–	–	79.1	69	69.6	80.6	63
[4]	–	–	–	–	83.3	55.6	78.2	88.4	55.5
[5]	–	–	–	–	74.5	65.6	61.8	92	55.3
[6]	–	–	–	–	75.1	50.9	53.1	59	24.4
[7]	–	–	–	–	69.7	47.8	38.4	39.2	21.8
[8]	–	–	–	–	73.7	58.7	48.6	71.6	5.69
[9]	–	–	–	–	46.4	11.5	3.45	58.7	0.265
[10]	–	–	–	–	47.2	40.6	42.5	78.8	4.58
[11]	–	–	–	–	78.2	48.1	25.1	49.6	< 0
[12]	–	–	–	–	95.8	98.4	93.6	90.6	96.4
[13]	–	–	–	–	94.5	81.9	79.7	88.4	74.4
[14]	–	–	–	–	97.6	86.7	77.1	95.1	< 0
[15]	–	–	–	–	77.4	68.2	55.9	73.9	< 0

Conditions	IC50 (cell viability) [nM]
BV-173	3.9
HEL	1150
K-562	5.35
KU-812	1.11
LAMA-84	20.8
MOLM-13	1.98
MV4-11	61.1
Mono-Mac-6	4.87
SHI-1	28.2
THP-1	53.9
